In ChEMBL document CHEMBL4411321, “Discovery of Potent, Selective, and Orally Bioavailable Estrogen-Related Receptor-γ Inverse Agonists To Restore the Sodium Iodide Symporter Function in Anaplastic Thyroid Cancer” (J Med Chem, 2019):

Assays:
[1] = target: T1, Estrogen-related receptor gamma (Homo sapiens, UniProt P62508)
T1 sequence (P62508 whole entry): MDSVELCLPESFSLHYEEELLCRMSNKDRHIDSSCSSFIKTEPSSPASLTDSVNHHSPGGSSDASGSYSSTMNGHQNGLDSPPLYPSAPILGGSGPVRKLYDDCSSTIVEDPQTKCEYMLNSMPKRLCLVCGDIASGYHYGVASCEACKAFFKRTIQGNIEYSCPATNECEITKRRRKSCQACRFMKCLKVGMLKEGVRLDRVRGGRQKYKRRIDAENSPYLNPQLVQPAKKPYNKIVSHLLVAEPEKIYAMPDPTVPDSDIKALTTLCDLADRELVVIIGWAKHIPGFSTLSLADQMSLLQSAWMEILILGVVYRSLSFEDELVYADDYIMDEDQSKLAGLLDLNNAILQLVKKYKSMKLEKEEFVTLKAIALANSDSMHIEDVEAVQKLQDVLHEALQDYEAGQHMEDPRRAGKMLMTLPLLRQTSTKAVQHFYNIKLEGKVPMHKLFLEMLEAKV

[2] = target: T2, Steroid hormone receptor ERR1 (Homo sapiens, UniProt P11474)
T2 sequence (P11474 whole entry): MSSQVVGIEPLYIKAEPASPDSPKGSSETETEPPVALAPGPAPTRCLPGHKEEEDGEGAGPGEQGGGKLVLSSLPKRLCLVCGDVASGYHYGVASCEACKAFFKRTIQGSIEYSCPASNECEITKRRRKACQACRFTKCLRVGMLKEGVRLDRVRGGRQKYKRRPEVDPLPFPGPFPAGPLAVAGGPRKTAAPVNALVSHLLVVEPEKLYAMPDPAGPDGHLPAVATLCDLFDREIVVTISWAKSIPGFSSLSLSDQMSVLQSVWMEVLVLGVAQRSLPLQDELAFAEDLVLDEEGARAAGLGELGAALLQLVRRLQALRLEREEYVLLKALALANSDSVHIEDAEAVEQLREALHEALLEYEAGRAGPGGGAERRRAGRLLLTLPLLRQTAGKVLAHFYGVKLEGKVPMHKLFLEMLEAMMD

[3] = target: T3, Steroid hormone receptor ERR2 (Homo sapiens, UniProt O95718); assay: Binding affinity to ERRbeta (unknown origin) using fluorescein-conjugated coactivator PGC-1alpha incubated for 1 hr by TR-FRET assay
T3 sequence (O95718 whole entry): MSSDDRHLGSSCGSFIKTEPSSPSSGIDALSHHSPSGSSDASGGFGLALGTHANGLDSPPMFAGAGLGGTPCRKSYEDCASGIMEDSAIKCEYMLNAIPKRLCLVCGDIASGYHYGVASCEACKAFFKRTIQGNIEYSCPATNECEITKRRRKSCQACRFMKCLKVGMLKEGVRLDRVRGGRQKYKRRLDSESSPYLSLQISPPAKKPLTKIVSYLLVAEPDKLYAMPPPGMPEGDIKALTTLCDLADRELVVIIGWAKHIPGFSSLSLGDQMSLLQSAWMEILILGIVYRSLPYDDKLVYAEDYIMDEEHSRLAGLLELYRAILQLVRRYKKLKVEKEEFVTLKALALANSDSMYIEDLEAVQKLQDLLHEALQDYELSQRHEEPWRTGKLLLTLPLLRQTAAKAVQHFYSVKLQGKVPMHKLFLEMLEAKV

Estrogen receptor = target: T4, Estrogen receptor (Homo sapiens, UniProt P03372)
T4 sequence (P03372 whole entry): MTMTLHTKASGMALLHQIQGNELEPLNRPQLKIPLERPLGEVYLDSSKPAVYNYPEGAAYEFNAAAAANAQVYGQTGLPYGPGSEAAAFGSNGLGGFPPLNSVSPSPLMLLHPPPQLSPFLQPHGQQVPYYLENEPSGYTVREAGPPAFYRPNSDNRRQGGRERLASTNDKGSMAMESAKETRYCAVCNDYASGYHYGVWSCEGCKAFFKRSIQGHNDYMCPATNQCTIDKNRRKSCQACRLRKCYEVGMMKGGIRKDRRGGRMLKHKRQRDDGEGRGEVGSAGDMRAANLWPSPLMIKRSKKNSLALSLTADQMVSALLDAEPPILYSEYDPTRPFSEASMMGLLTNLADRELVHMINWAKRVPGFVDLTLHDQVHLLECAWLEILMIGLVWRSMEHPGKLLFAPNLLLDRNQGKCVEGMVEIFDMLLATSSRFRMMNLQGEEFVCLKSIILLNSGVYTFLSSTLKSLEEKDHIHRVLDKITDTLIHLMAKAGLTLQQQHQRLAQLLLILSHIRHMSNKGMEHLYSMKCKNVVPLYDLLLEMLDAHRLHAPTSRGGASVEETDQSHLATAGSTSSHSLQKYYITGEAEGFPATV

CYP2C19 = CYP2C19 (Homo sapiens, UniProt P33261); assay: Inhibition of CYP2C19 in human liver microsomes assessed as reduction in S-mephenytoin 4-hydroxylase activity at 10 uM preincubated for 5 mins followed by NADPH addition and measured after 15 mins by LC-MS/MS analysis relative to control; assay type: ADME; settings: probe S-mephenytoin (4-hydroxylation)
Chain of CYP2C19 (P33261 whole entry): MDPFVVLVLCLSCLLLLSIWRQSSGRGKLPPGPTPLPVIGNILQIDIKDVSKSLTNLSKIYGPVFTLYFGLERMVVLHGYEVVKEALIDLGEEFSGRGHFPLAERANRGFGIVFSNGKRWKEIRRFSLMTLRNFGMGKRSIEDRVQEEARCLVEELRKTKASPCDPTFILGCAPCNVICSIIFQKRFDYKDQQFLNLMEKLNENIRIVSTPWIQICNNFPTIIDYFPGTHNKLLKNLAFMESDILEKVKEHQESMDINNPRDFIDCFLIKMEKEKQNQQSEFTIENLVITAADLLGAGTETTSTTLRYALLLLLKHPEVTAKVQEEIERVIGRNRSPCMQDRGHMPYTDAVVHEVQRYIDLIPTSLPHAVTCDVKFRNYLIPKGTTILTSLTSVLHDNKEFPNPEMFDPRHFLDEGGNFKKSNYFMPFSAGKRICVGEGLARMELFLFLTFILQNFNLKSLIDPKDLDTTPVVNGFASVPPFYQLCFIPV

CYP2C9 = CYP2C9 (Homo sapiens, UniProt P11712); assay: Inhibition of CYP2C9 in human liver microsomes assessed as reduction in tolbutamide 4-hydroxylase activity at 10 uM preincubated for 5 mins followed by NADPH addition and measured after 15 mins by LC-MS/MS analysis relative to control; assay type: ADME; settings: probe tolbutamide (4-hydroxylation)
Chain of CYP2C9 (P11712 whole entry): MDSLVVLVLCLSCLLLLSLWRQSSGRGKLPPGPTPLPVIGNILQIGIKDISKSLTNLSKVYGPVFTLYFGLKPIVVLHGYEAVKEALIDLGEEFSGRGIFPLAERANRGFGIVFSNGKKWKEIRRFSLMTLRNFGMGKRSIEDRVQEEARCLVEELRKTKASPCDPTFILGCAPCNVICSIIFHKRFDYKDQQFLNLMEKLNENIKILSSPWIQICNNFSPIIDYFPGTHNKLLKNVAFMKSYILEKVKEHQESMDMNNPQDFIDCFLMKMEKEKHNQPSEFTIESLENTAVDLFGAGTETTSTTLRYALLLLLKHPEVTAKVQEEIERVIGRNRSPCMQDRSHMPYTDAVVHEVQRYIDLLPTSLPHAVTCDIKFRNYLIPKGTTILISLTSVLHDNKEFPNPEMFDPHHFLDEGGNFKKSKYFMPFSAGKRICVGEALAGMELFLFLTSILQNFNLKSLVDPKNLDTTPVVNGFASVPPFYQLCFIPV

[4] = Metabolic stability in rat liver microsomes assessed as compound remaining at 1 uM after 30 mins in presence of NADPH regeneration system by LC-MS/MS analysis; assay type: ADME, Microsome; settings: read-out: Stability
[5] = Metabolic stability in human liver microsomes assessed as compound remaining at 1 uM after 30 mins in presence of NADPH regeneration system by LC-MS/MS analysis; assay type: ADME, Microsome; settings: read-out: Stability
[6] = Metabolic stability in mouse liver microsomes assessed as compound remaining at 1 uM after 30 mins in presence of NADPH regeneration system by LC-MS/MS analysis; assay type: ADME, Microsome; settings: read-out: Stability
CYP2D6 = CYP2D6 (Homo sapiens, UniProt P10635); assay: Inhibition of CYP2D6 in human liver microsomes assessed as reduction in dextromethorphan O-demethylase activity at 10 uM preincubated for 5 mins followed by NADPH addition and measured after 15 mins by LC-MS/MS analysis relative to control; assay type: ADME; settings: probe dextromethorphan (O-demethylation)
Chain of CYP2D6 (P10635 whole entry): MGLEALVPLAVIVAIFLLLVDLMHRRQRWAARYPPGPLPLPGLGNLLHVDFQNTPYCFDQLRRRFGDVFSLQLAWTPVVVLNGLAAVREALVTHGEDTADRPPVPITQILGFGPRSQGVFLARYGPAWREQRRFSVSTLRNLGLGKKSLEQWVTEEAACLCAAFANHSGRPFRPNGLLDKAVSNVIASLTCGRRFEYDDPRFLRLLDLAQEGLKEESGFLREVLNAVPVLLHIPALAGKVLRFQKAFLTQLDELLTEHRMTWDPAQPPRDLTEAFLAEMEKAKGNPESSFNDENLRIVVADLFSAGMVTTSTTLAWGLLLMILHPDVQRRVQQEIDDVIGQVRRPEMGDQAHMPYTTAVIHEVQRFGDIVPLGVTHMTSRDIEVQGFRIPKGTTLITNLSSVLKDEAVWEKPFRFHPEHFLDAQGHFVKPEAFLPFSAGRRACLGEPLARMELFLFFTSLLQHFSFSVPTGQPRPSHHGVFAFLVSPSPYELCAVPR

CYP1A2 = target: T5, CYP1A2 (Homo sapiens, UniProt P05177); assay: Inhibition of CYP1A2 in human liver microsomes assessed as reduction in phenacetin O-deethylase activity at 10 uM preincubated for 5 mins followed by NADPH addition and measured after 15 mins by LC-MS/MS analysis relative to control; assay type: ADME; settings: probe phenacetin (O-deethylation)
T5 sequence (P05177 whole entry): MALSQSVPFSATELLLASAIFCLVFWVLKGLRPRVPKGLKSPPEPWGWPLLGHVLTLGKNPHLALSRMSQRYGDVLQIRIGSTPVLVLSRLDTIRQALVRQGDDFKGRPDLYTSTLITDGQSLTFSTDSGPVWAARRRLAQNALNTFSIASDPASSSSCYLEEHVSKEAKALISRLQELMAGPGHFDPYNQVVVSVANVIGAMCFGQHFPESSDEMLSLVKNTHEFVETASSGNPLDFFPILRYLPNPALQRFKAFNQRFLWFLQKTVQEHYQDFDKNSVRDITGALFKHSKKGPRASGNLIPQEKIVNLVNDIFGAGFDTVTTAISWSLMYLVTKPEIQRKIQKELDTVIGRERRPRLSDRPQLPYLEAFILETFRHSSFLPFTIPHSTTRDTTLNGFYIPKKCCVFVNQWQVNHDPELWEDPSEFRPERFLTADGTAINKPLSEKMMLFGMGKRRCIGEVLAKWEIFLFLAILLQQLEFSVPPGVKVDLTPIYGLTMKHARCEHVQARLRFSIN

CYP3A4 = CYP3A4 (Homo sapiens, UniProt P08684); assay: Inhibition of CYP3A4 in human liver microsomes assessed as reduction in midazolam 1-hydroxylase activity at 10 uM preincubated for 5 mins followed by NADPH addition and measured after 15 mins by LC-MS/MS analysis relative to control; assay type: ADME; settings: probe midazolam (1-hydroxylation)
Chain of CYP3A4 (P08684 whole entry): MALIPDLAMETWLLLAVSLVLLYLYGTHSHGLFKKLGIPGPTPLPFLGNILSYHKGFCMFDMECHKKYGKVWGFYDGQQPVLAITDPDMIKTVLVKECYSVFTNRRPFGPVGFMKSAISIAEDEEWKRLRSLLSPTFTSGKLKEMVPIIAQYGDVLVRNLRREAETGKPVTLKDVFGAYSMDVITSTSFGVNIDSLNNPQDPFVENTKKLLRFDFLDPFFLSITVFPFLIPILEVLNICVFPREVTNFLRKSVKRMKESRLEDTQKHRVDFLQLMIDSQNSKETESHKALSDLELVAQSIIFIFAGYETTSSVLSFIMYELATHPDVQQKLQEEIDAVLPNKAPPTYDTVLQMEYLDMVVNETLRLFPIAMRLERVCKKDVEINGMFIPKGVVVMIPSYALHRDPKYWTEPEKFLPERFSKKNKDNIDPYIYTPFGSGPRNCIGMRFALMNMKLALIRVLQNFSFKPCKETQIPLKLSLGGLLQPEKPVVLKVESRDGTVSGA

[7] = Metabolic stability in dog liver microsomes assessed as compound remaining at 1 uM after 30 mins in presence of NADPH regeneration system by LC-MS/MS analysis; assay type: ADME, Canis lupus familiaris, Microsome; settings: read-out: Stability
[8] = Effective permeability of the compound at 10 uM after 5 hrs by PAMPA; assay type: ADME; settings: read-out: Peff

## CN1CCN(c2ccc(/C(=C(/CCCOC(=O)C(C)(C)C)c3ccccc3)c3ccc(OC(=O)C(C)(C)C)cc3)cc2)CC1
[1]
  IC50: > 10000 nM

## OCCC/C(=C(\c1ccc(O)cc1)c1ccc(N2CCNCC2)cc1)c1ccccc1
[2]
  IC50: > 10000 nM
[3]
  IC50: 4540 nM
Estrogen receptor
  IC50: 2500 nM

## CN1CCN(c2ccc(/C(=C(/CCCO)c3ccccc3)c3ccc(N)cc3)cc2)CC1
[1]
  IC50: 140 nM

## CC(C)N1CCN(c2ccc(/C(=C(/CCCO)c3ccccc3)c3ccc(NC(=N)N)cc3)cc2)CC1
[1]
  IC50: > 10000 nM

## CC(C)N1CCN(c2ccc(/C(=C(/CCCO)c3ccccc3)c3ccc(OS(=O)(=O)C4CC4)cc3)cc2)CC1
[1]
  IC50: 1360 nM

## CC(C)N1CCN(c2ccc(/C(=C(/CCCO)c3ccccc3)c3cccc(Br)c3)cc2)CC1
[2]
  IC50: > 10000 nM
CYP2C19
  inhibition at 0.25 h, 10 µM: 56.1%
CYP2C9
  inhibition at 0.25 h, 10 µM: 27%
[4]
  remaining at 0.5 h, 1 µM: 53.7%
[5]
  remaining at 0.5 h, 1 µM: 53.6%
[6]
  remaining at 0.5 h, 1 µM: 31%
[3]
  IC50: 1440 nM
CYP2D6
  inhibition at 0.25 h, 10 µM: 70.4%
CYP1A2
  inhibition at 0.25 h, 10 µM: 2.5%
CYP3A4
  inhibition at 0.25 h, 10 µM: 60.1%
Estrogen receptor
  IC50: > 10000 nM
[7]
  remaining at 0.5 h, 1 µM: 68.4%

## OCCC/C(=C(\c1ccc(O)cc1)c1ccc(N2CCN(C3CCCC3)CC2)cc1)c1ccccc1
[1]
  IC50: 115 nM

## N=C(N)N1CCN(c2ccc(/C(=C(/CCCO)c3ccccc3)c3ccc(O)cc3)cc2)CC1
[1]
  IC50: 511 nM

## CN1CCN(c2ccc(/C(=C(/CCCOC(=O)C(C)(C)C)c3ccccc3)c3ccc(O)cc3)cc2)CC1
[1]
  IC50: > 10000 nM

## OCCC/C(=C(\c1ccc(Br)cc1)c1ccc(N2CCNCC2)cc1)c1ccccc1
CYP2C19
  inhibition at 0.25 h, 10 µM: 38.1%
CYP2C9
  inhibition at 0.25 h, 10 µM: 24%
[4]
  remaining at 0.5 h, 1 µM: 84.7%
[5]
  remaining at 0.5 h, 1 µM: 65.1%
CYP2D6
  inhibition at 0.25 h, 10 µM: 29.3%
CYP1A2
  inhibition at 0.25 h, 10 µM: 15%
CYP3A4
  inhibition at 0.25 h, 10 µM: 45%
Estrogen receptor
  IC50: > 10000 nM

## CC(=O)Nc1ccc(/C(=C(\CCCO)c2ccccc2)c2ccc(N3CCN(C(C)C)CC3)cc2)cc1
[1]
  IC50: 4330 nM

## CC(C)N1CCN(c2cccc(/C(=C(/CCCO)c3ccccc3)c3cccc(O)c3)c2)CC1
[1]
  IC50: 5620 nM

## CC(C)N1CCN(c2cccc(/C(=C(/CCCO)c3ccccc3)c3ccc(O)cc3)c2)CC1
[1]
  IC50: > 10000 nM

## CC(C)N1CCN(c2ccc(/C(=C(/CCCO)c3ccccc3)c3ccc(OS(=O)(=O)C(F)(F)F)cc3)cc2)CC1
[1]
  IC50: 3020 nM

## CN1CCN(c2ccc(/C(=C(/CCCO)c3ccccc3)c3ccc(Br)cc3)cc2)CC1
[2]
  IC50: > 10000 nM
Estrogen receptor
  IC50: > 10000 nM

## CC(C)N1CCN(c2ccc(/C(=C(/CCCO)c3ccccc3)c3ccc(OS(C)(=O)=O)cc3)cc2)CC1
[1]
  IC50: 2630 nM

## CN1CCN(c2ccc(/C(=C(/CCCO)c3ccccc3)c3ccc(O)cc3)cc2)CC1
[2]
  IC50: > 10000 nM
[3]
  IC50: 1980 nM
Estrogen receptor
  IC50: 1700 nM

## CN1CCN(c2ccc(/C(=C(/CCCO)c3ccccc3)c3ccc(OC(=O)C(C)(C)C)cc3)cc2)CC1
[1]
  IC50: 2700 nM

## OCCC/C(=C(\c1ccc(O)cc1)c1ccc(N2CCN(C3CCCCC3)CC2)cc1)c1ccccc1
[2]
  IC50: 9700 nM
[1]
  IC50: 99 nM
Estrogen receptor
  IC50: 2120 nM

## OCCC/C(=C(\c1ccc(O)cc1)c1ccc(N2CCN(C3CCC3)CC2)cc1)c1ccccc1
[2]
  IC50: > 10000 nM
[1]
  IC50: 53 nM
Estrogen receptor
  IC50: 1660 nM

## CC(C)N1CCN(c2ccc(/C(=C(/CCCO)c3ccccc3)c3ccc(NS(=O)(=O)C4CC4)cc3)cc2)CC1
[1]
  IC50: 3630 nM

## OCCC/C(=C(\c1ccc(O)cc1)c1ccc(N2CCN(C3COC3)CC2)cc1)c1ccccc1
[1]
  IC50: 214 nM

## CCN1CCN(c2ccc(/C(=C(/CCCO)c3ccccc3)c3ccc(O)cc3)cc2)CC1
[2]
  IC50: > 10000 nM
[1]
  IC50: 50 nM
Estrogen receptor
  IC50: 1140 nM

## CC(C)N1CCN(c2ccc(/C(=C(/CCCO)c3ccccc3)c3ccc(Br)cc3)cc2)CC1.Cl.Cl
[8]
  Papp at 5 h, 10 µM: 0.37 ×10⁻⁶ cm/s
[2]
  IC50: > 10000 nM
CYP2C19
  inhibition at 0.25 h, 10 µM: 13.7%
CYP2C9
  inhibition at 0.25 h, 10 µM: 3.1%
[4]
  remaining at 0.5 h, 1 µM: 74.2%
[5]
  remaining at 0.5 h, 1 µM: > 100%
[6]
  remaining at 0.5 h, 1 µM: 48.5%
CYP2D6
  inhibition at 0.25 h, 10 µM: 28.5%
CYP1A2
  inhibition at 0.25 h, 10 µM: 6.5%
CYP3A4
  inhibition at 0.25 h, 10 µM: 35.5%
Estrogen receptor
  IC50: > 10000 nM
[7]
  remaining at 0.5 h, 1 µM: 64.4%
